Molecules are shown by their SMILES.

The source of these data is US20250049032A1, “ETHYLENE SIGNALING ACTIVATOR MODULATES ROOT SYSTEM ARCHITECTURE” (Salk Institute for Biological Studies, priority 2021, published 2025).

What all share (type): in vivo, Arabidopsis thaliana
Assay [1] relates to Arabidopsis lateral roots. As to the kind of experiment: Time lapse of lateral root angle phenotyping after plate transfer. The method, then: Time lapse of lateral root angle phenotyping. […] Root phenotype images of these plates were acquired by CCD vertical scanners (EPSON Perfection V600 Photo, Seiko Epson CO., Nagano, Japan) every 10 mins over a period of 24 hours using the tool described (Ogura et al., 2022). Root length and lateral root angles were measured using Fiji.

The subject of assay [2] is DR5-GFP V2. As to the kind of experiment: DR5-GFP V2 auxin response reporter in roots. The text has this: (§1) LaserMicroscopy. A Zeiss 710 confocal microscope with 20×, 40×, and 63× objectives were used to detect GFP and propidium iodide (PI) fluorescence. A Keyence BZ-X810 microscope with a 20× objective was used to detect bright field images and GFP fluorescence in FIG. 3B, FIG. 8B right panel, FIG. 9C, FIG. 9F.

Assay [3] concerns ARR5. The experiment in a line: Expression of immediate-early cytokinin target gene ARR5. Particulars: 10 μM MBZ, 3 h, 6 h or 12 hours.
Assay [4] has as its system Ethylene Response Factor1 (ERF1). The experiment in a line: Expression of ethylene response marker gene ERF1. Particulars: root tissue, 2 hours, 10 μM MBZ or ACC (50 μM per legend).
Assay [5] has as its system Arabidopsis roots. The experiment in a line: mRNA-seq of roots, differential expression and GO analysis. How it is done: mRNA-seq analysis. 14 d old seedlings on DMSO plates were transferred to 12 MS liquid plates with DMSO or 10 μM mebedazole treatment for 4 h, root tissues were collected for RNA extraction and RNA-seq.
Read alignment and generation of counts. The TAIR10 genome file and annotation file were obtained from the Arabidopsis Information resource web site (arabidopsis.org). The An aligner, called the Splice Transcripts Alignments to Reference (STAR) version 2.7.0a^44, was used to align short reads in the FASTQ files. In order to use STAR, a STAR index was built using the following parameters:
Then, short reads in the FASTQ files were aligned and gene counts were obtained using the following STAR command:
A custom R script was used to combine counts per gene from count data produced from STAR cross all samples.
Differential expression analysis. Differential expression of genes between treatments and control was determined using the R package, edgeR (version 3.36.0) (Robinson et al., 2010). The CPM (counts per million) function from edgeR was used to normalize the counts and differentially expressed genes (DEGs) were identified using glmLRT function from edgeR.
Analysis of published Ethylene RNA-Seq. The fastq-dump utility from the Short Read Archive (SRA) Toolkit (v2.6.3) (github.com/ncbi/sra-tools) was used to download transcriptome libraries (SRA accession IDs: SRR648276, SRR648275, SRR648274, SRR648300, SRR648299, and SRR648298) from SRA database (ncbi.nlm.nih.gov/sra) (Leinonen et al., 2011). The color space sequencing data were converted to base-space sequencing data using Perl script ‘csfq2fq.pl’ (gist.github.com/pcantalupo/9c30709fe802c96ea2b3). The converted FASTQ files were aligned and analyzed using above methods.
Statistical analysis. A two-sided Student's t-test was used for comparisons of two conditions. The comparison of meristem length, mature cell length, root length, GSA between multiple treatments or genotypes was performed by One-way ANOVA and post hoc Tukey testing. Detailed information was prepared in figure legends. Statistical significance of overlap between DEGs from MBZ treatment and ethylene treatment was assessed by hypergeometric distribution test. Hypergeometric test function in R was used to calculate statistical significance: • $ phyper(q−1, m, n-m, k, lower.tail=FALSE, log.p=FALSE) • q=the number of genes in common between two sets • m=the number of genes in Set 1; • n=the total number of genes in RNA-Seq counts table (33,602) • k=the number of genes in Set 2

The subject of assay [6] is EIN3. The experiment in a line: 35S-EIN3-GFP protein level in ein3eil1 background. The note with it: 2 hours, 10 μM MBZ or 50 μM ACC.
From the text: as §1

The subject of assay [7] is root cells of etiolated seedlings. As to the kind of experiment: Root cell size by confocal microscopy (PI staining). Particulars: 4-day-old etiolated seedlings, 2.5 μM MBZ or 10 μM ACC.
From the text: as §1

Regarding `COC(=O)Nc1nc2ccc(C(=O)c3ccccc3)cc2[nH]1` [MBZ, Mebendazole], the “reversibility of effect on lateral root angles” value in assay [1] (1 μM MBZ, removal) was “fully reversible”. In addition, the “time to change of GSA in time-lapse experiment” value in assay [1] (MBZ treatment) is reported as “one to four”. For the same molecule, in assay [1] (transfer from 1 μM MBZ back to control conditions, 5 lateral root tips), the “time until lateral root tips grow at a distinctly steeper angle upon removal from MBZ” value is “four”. In assay [1] (transfer from DMSO to 1 μM MBZ medium, five lateral root tips), the “time until lateral root tips grow at a more horizontal angle” value is on record as “three”. The “DR5-GFP V2 expression within 3 hours compared to mock” value in assay [2] (10 μM MBZ, 3 h) is reported as “no increased”. For the same molecule, in assay [2] (7-day-old roots grown on 1 μM MBZ plates), the “DR5-GFP V2 expression, long-term treatment” value is “induced”. The ARR5 expression entry in assay [3] is “did not respond”. Moreover, in assay [4], the “transcript level of ERF” value was “strongly induced”. Moreover, in assay [5] (10 μM MBZ, 4 hours), the “GO enrichment of ethylene-activated signaling pathway (GO:0009873)” value is recorded as 10.83 fold enrichment and the “GO enrichment of negative regulation of ethylene-activated signaling pathway (GO:0010105)” value is recorded as 21.03 fold enrichment. For the same molecule, the “number of differentially expressed genes (DEGs)” value in assay [5] (4 hours of MBZ treatment) is on record as 1335 genes. Besides, in assay [5] (4 hours of MBZ treatment vs published ethylene data), the “DEGs overlapping with DEGs of 4 hours ethylene treatment” value is reported as 306 genes. Also, the “common DEGs retaining directionality of expression change” value in assay [5] (MBZ vs ethylene, 4 h) is “More than 90%”. Also, in assay [6], the 35S-EIN3-GFP protein level entry is given as “dramatically induced”. Also, the mature cell size result in assay [7] is given as “reduced”.
